Experimental data from patent US20240238242A1, “EGCG buccal tablet and use thereof” (priority 2023, published 2024).
Values joined by “and” are separate entries in the source; they are usually repeats but may differ in a detail not shown here. Equal values may be shown once.

Test system: Coronavirus (hCoV-229E)
Assay: Inactivation efficiency against coronavirus hCoV-229E strain (residual TCID50 on Huh-7 cells)
Format: cell-based
Conditions: for CPE test (virus replication in cell wells): wells 1-10; for average inactivation efficiency against virus / inactivation efficiency against the virus: hCoV-229E virus; for average inactivation efficiency against virus: three experiments; for inactivation efficiency against the virus: single experiment

For `O=C(O[C@@H]1Cc2c(O)cc(O)cc2O[C@@H]1c1cc(O)c(O)c(O)c1)c1cc(O)c(O)c(O)c1` [EGCG, Epigallocatechin gallate], the “CPE test (virus replication in the cell wells)” value (1 mM EGCG + virus, co-incubated 5 minute, second experiment, dilution factor 10^8, wells 1-10) was “−”, the “CPE test (virus replication in the cell wells)” value (1 mM EGCG + virus, co-incubated 5 minutes, dilution factor 10^1, wells 1-10, third experiment) was “+” and the “CPE test (virus replication in the cell wells)” value (1 mM EGCG + virus, co-incubated 5 minutes, dilution factor 10^2, wells 1-10, third experiment) was “+”. For the same molecule, the “CPE test (virus replication in the cell wells)” value (1 mM EGCG + virus, co-incubated 5 minutes, dilution factor 10^3, wells 1-10, third experiment) was “+”, the “CPE test (virus replication in the cell wells)” value (1 mM EGCG + virus, co-incubated 5 minutes, dilution factor 10^4, wells 1-10, third experiment) was “+” and the “CPE test (virus replication in the cell wells)” value (1 mM EGCG + virus, co-incubated 5 minutes, dilution factor 10^5, wells 1-10, third experiment) was “+ and −”. For the same molecule, the “CPE test (virus replication in the cell wells)” value (1 mM EGCG + virus, co-incubated 5 minutes, dilution factor 10^6, wells 1-10, third experiment) was “− and +”, the “CPE test (virus replication in the cell wells)” value (1 mM EGCG + virus, co-incubated 5 minutes, dilution factor 10^7, wells 1-10, third experiment) was “−” and the “CPE test (virus replication in the cell wells)” value (1 mM EGCG + virus, co-incubated 5 minutes, dilution factor 10^8, wells 1-10, third experiment) was “−”. For the same molecule, the “CPE test (virus replication in cell wells)” value (1 mM EGCG + virus, hCoV-229E co-incubated 1 minute, second experiment, dilution factor 10^1) was “+”, the “CPE test (virus replication in cell wells)” value (1 mM EGCG + virus, hCoV-229E co-incubated 1 minute, second experiment, dilution factor 10^2) was “+” and the “CPE test (virus replication in cell wells)” value (1 mM EGCG + virus, hCoV-229E co-incubated 1 minute, second experiment, dilution factor 10^3) was “+”. For the same molecule, the “CPE test (virus replication in cell wells)” value (1 mM EGCG + virus, hCoV-229E co-incubated 1 minute, second experiment, dilution factor 10^4) was “+ and −”, the “CPE test (virus replication in cell wells)” value (1 mM EGCG + virus, hCoV-229E co-incubated 1 minute, second experiment, dilution factor 10^5) was “− and +” and the “CPE test (virus replication in cell wells)” value (1 mM EGCG + virus, hCoV-229E co-incubated 1 minute, second experiment, dilution factor 10^6) was “−”. For the same molecule, the “CPE test (virus replication in cell wells)” value (1 mM EGCG + virus, hCoV-229E co-incubated 1 minute, second experiment, dilution factor 10^7) was “−”, the “CPE test (virus replication in cell wells)” value (1 mM EGCG + virus, hCoV-229E co-incubated 1 minute, second experiment, dilution factor 10^8) was “−” and the “CPE test (virus replication in cell wells)” value (1 mM EGCG + virus, hCoV-229E co-incubated 1 minute, third experiment, dilution factor 10^1) was “+”. For the same molecule, the “CPE test (virus replication in cell wells)” value (1 mM EGCG + virus, hCoV-229E co-incubated 1 minute, third experiment, dilution factor 10^2) was “+”, the “CPE test (virus replication in cell wells)” value (1 mM EGCG + virus, hCoV-229E co-incubated 1 minute, third experiment, dilution factor 10^3) was “+” and the “CPE test (virus replication in cell wells)” value (1 mM EGCG + virus, hCoV-229E co-incubated 1 minute, third experiment, dilution factor 10^4) was “+”. For the same molecule, the “CPE test (virus replication in cell wells)” value (1 mM EGCG + virus, hCoV-229E co-incubated 1 minute, third experiment, dilution factor 10^5) was “+ and −”, the “CPE test (virus replication in cell wells)” value (1 mM EGCG + virus, hCoV-229E co-incubated 1 minute, third experiment, dilution factor 10^6) was “− and +” and the “CPE test (virus replication in cell wells)” value (1 mM EGCG + virus, hCoV-229E co-incubated 1 minute, third experiment, dilution factor 10^7) was “−”. For the same molecule, the “CPE test (virus replication in cell wells)” value (1 mM EGCG + virus, hCoV-229E co-incubated 1 minute, third experiment, dilution factor 10^8) was “−”, the “average inactivation efficiency against virus” value (“average inactivation efficiency” for short) (1 mM EGCG, 1 minute) was 49.71% and the “inactivation efficiency against the virus” value (1 mM EGCG, 5 minutes) was 49.88% and 36.90%. For the same molecule, the “average inactivation efficiency” value (1 mM EGCG, 5 minutes) was 45.55%, the “CPE test (virus replication in cell wells)” value (5 mM EGCG + hCoV-229E virus, co-incubated 1 minute, first experiment, dilution factor 10^2) was “+” and the “CPE test (virus replication in cell wells)” value (5 mM EGCG + hCoV-229E virus, co-incubated 1 minute, first experiment, dilution factor 10^3) was “+”. The “CPE test (virus replication in cell wells)” value (5 mM EGCG + hCoV-229E virus, co-incubated 1 minute, first experiment, dilution factor 10^4) was “+”, the “CPE test (virus replication in cell wells)” value (5 mM EGCG + hCoV-229E virus, co-incubated 1 minute, first experiment, dilution factor 10^5) was “+ and −” and the “CPE test (virus replication in cell wells)” value (5 mM EGCG + hCoV-229E virus, co-incubated 1 minute, first experiment, dilution factor 10^6) was “−”. The “CPE test (virus replication in cell wells)” value (5 mM EGCG + hCoV-229E virus, co-incubated 1 minute, first experiment, dilution factor 10^7) was “−”, the “CPE test (virus replication in cell wells)” value (5 mM EGCG + hCoV-229E virus, co-incubated 1 minute, first experiment, dilution factor 10^8) was “−” and the “CPE test (virus replication in the cell wells)” value (5 mM EGCG + virus, co-incubated 5 minute, first experiment, dilution factor 10^2, wells 1-10) was “+”. The “CPE test (virus replication in the cell wells)” value (5 mM EGCG + virus, co-incubated 5 minute, first experiment, dilution factor 10^3, wells 1-10) was “+”, the “CPE test (virus replication in the cell wells)” value (5 mM EGCG + virus, co-incubated 5 minute, first experiment, dilution factor 10^4, wells 1-10) was “+” and the “CPE test (virus replication in the cell wells)” value (5 mM EGCG + virus, co-incubated 5 minute, first experiment, dilution factor 10^5, wells 1-10) was “− and +”. The “CPE test (virus replication in the cell wells)” value (5 mM EGCG + virus, co-incubated 5 minute, first experiment, dilution factor 10^6, wells 1-10) was “−”, the “CPE test (virus replication in the cell wells)” value (5 mM EGCG + virus, co-incubated 5 minute, first experiment, dilution factor 10^7, wells 1-10) was “−” and the “CPE test (virus replication in the cell wells)” value (5 mM EGCG + virus, co-incubated 5 minute, first experiment, dilution factor 10^8, wells 1-10) was “−”. The “CPE test (virus replication in the cell wells)” value (5 mM EGCG + virus, co-incubated 5 minute, second experiment, dilution factor 10^2, wells 1-10) was “+”, the “CPE test (virus replication in the cell wells)” value (5 mM EGCG + virus, co-incubated 5 minute, second experiment, dilution factor 10^3, wells 1-10) was “+” and the “CPE test (virus replication in the cell wells)” value (5 mM EGCG + virus, co-incubated 5 minute, second experiment, dilution factor 10^4, wells 1-10) was “+”. The “CPE test (virus replication in the cell wells)” value (5 mM EGCG + virus, co-incubated 5 minute, second experiment, dilution factor 10^5, wells 1-10) was “− and +”, the “CPE test (virus replication in the cell wells)” value (5 mM EGCG + virus, co-incubated 5 minute, second experiment, dilution factor 10^6, wells 1-10) was “− and +” and the “CPE test (virus replication in the cell wells)” value (5 mM EGCG + virus, co-incubated 5 minute, second experiment, dilution factor 10^7, wells 1-10) was “−”. For the same molecule, the “CPE test (virus replication in the cell wells)” value (5 mM EGCG + virus, co-incubated 5 minute, second experiment, dilution factor 10^8, wells 1-10) was “−”, the “CPE test (virus replication in the cell wells)” value (5 mM EGCG + virus, co-incubated 5 minutes, dilution factor 10^1, wells 1-10, third experiment) was “+” and the “CPE test (virus replication in the cell wells)” value (5 mM EGCG + virus, co-incubated 5 minutes, dilution factor 10^2, wells 1-10, third experiment) was “+”. The “CPE test (virus replication in the cell wells)” value (5 mM EGCG + virus, co-incubated 5 minutes, dilution factor 10^3, wells 1-10, third experiment) was “+”, the “CPE test (virus replication in the cell wells)” value (5 mM EGCG + virus, co-incubated 5 minutes, dilution factor 10^4, wells 1-10, third experiment) was “+” and the “CPE test (virus replication in the cell wells)” value (5 mM EGCG + virus, co-incubated 5 minutes, dilution factor 10^5, wells 1-10, third experiment) was “+ and −”. For the same molecule, the “CPE test (virus replication in the cell wells)” value (5 mM EGCG + virus, co-incubated 5 minutes, dilution factor 10^6, wells 1-10, third experiment) was “− and +”, the “CPE test (virus replication in the cell wells)” value (5 mM EGCG + virus, co-incubated 5 minutes, dilution factor 10^7, wells 1-10, third experiment) was “−” and the “CPE test (virus replication in the cell wells)” value (5 mM EGCG + virus, co-incubated 5 minutes, dilution factor 10^8, wells 1-10, third experiment) was “−”. For the same molecule, the “CPE test (virus replication in cell wells)” value (5 mM EGCG + virus, hCoV-229E co-incubated 1 minute, second experiment, dilution factor 10^2) was “+”, the “CPE test (virus replication in cell wells)” value (5 mM EGCG + virus, hCoV-229E co-incubated 1 minute, second experiment, dilution factor 10^3) was “+ and −” and the “CPE test (virus replication in cell wells)” value (5 mM EGCG + virus, hCoV-229E co-incubated 1 minute, second experiment, dilution factor 10^4) was “+”. The “CPE test (virus replication in cell wells)” value (5 mM EGCG + virus, hCoV-229E co-incubated 1 minute, second experiment, dilution factor 10^5) was “− and +”, the “CPE test (virus replication in cell wells)” value (5 mM EGCG + virus, hCoV-229E co-incubated 1 minute, second experiment, dilution factor 10^6) was “−” and the “CPE test (virus replication in cell wells)” value (5 mM EGCG + virus, hCoV-229E co-incubated 1 minute, second experiment, dilution factor 10^7) was “−”. The “CPE test (virus replication in cell wells)” value (5 mM EGCG + virus, hCoV-229E co-incubated 1 minute, second experiment, dilution factor 10^8) was “−”, the “CPE test (virus replication in cell wells)” value (5 mM EGCG + virus, hCoV-229E co-incubated 1 minute, third experiment, dilution factor 10^2) was “+” and the “CPE test (virus replication in cell wells)” value (5 mM EGCG + virus, hCoV-229E co-incubated 1 minute, third experiment, dilution factor 10^3) was “+”. For the same molecule, the “CPE test (virus replication in cell wells)” value (5 mM EGCG + virus, hCoV-229E co-incubated 1 minute, third experiment, dilution factor 10^4) was “+”, the “CPE test (virus replication in cell wells)” value (5 mM EGCG + virus, hCoV-229E co-incubated 1 minute, third experiment, dilution factor 10^5) was “+ and −” and the “CPE test (virus replication in cell wells)” value (5 mM EGCG + virus, hCoV-229E co-incubated 1 minute, third experiment, dilution factor 10^6) was “− and +”. The “CPE test (virus replication in cell wells)” value (5 mM EGCG + virus, hCoV-229E co-incubated 1 minute, third experiment, dilution factor 10^7) was “−”, the “CPE test (virus replication in cell wells)” value (5 mM EGCG + virus, hCoV-229E co-incubated 1 minute, third experiment, dilution factor 10^8) was “−” and the “inactivation efficiency against the virus” value (5 mM EGCG, 1 minute) was 68.38% and 49.88%. The “average inactivation efficiency” value (5 mM EGCG, 1 minute) was 62.21%, the “inactivation efficiency against the virus” value (5 mM EGCG, 5 minutes) was 60.19% and 36.90% and 49.88% and the “average inactivation efficiency” value (5 mM EGCG, 5 minutes) was 48.99%.
